Converted amounts (≈) assume the structure as drawn. Read-outs that look alike come from different tables or passages of the source.
What was measured:
[1] = system: Trichomonas vaginalis; assay: In vitro activity against T. vaginalis (IC50 determination); assay type: cell-based; conditions: 37° C., aerobic, Modified Diamonds Medium
Description: The antiprotozoal e.g. antitrichomonal, activity of the compounds of the present invention may be assessed by conventional methods, for example by determining the minimum inhibition concentration (m.i.c.) or 50% inhibition level (IC50).
Modified Diamonds Medium (MDM) was prepared according to the method described in J. Kulda et al., American Journal of Obstetrics and Gynaecology 1970, 108, 908-18 and 4 cm^3 of the medium was pipetted into each of a series of tubes (usually 16 tubes). To each tube was added 0.5 cm^3 of varying concentration of a solution (usually in ethanol+MDM) or suspension of the test drug. Duplicate tubes for each drug concentration were prepared.
Finally, to each tube was added T. vaginalis (0.5 cm^3) at a concentration of 1×10^5 cm^-3,) to give a final trichomonad concentration of 1×10^4 cm^-3 in each tube. The tubes were then incubated (aerobically) at 37° C. and the resulting trichomonad numbers were counted at 24 and 48 hours using a haemacytometer.
This information was then used to determine the 50% inhibition concentration (IC50).

[2] = system: Candida albicans; assay: In vitro activity against Candida albicans (minimum inhibition concentration); assay type: cell-based; conditions: Yeast Nitrogen Base (YNB) broth; salt form given per compound
Description: The antifungal activity of the compounds of the present invention may be evaluated by determining the minimum fungistatic (inhibition) concentration (m.i.c.). This test is usually performed by preparing a series of plates or tubes containing a suitable nutrient medium, each plate or tube also containing a different concentration of the test compound and then inoculating the medium with the fungal species. After an incubation period the plates are examined visually for the presence or absence of fungal growth. The m.i.c. is the minimum concentration required to prevent fungal growth.
Minimum Inhibition Concentrations (MICs) of compounds of the present invention vs. C. albicans were determined.
The solution was filter sterilised with a 0.45 μm membrane filter unit and was then further diluted with sterile distilled water (SDW)-YNB solution: SDW (1:5).

[3] = 24 hr, 1×10^4 trichomonads cm^-3, read-out: IC50 24 hr
[4] = 48 hr, 1×10^4 trichomonads cm^-3, read-out: IC50 48 hr

Compound	IC50 [1, 3] [mg/L]	IC50 [1, 4] [mg/L]	MIC [2] [mg/L]
CCCCOc1ccc2c(c1)CCN=C2/C=C/C1CCCCC1 [Example 1, (E)-6-Butyloxy-1-(2-cyclohexylvinyl)-3,4-dihydroisoquinoline]	1.3 (≈ 4.17 µM)	1.8 (≈ 5.78 µM)	1.6
C(=CC1CCCCC1)C1=NCCc2cc(OCc3ccccc3)ccc21 [Example 2, 6-Benzyloxy-1-[2-cyclohexylvinyl]-3,4-dihydroisoquinoline]	1 (≈ 2.89 µM)	1.8 (≈ 5.21 µM)	1.6
CCCCOc1ccc2c(c1)CCN=C2C=Cc1ccccc1 [Example 3, 6-Butyloxy-3,4-dihydro-1-styrylisoquinoline]	3.7 (≈ 12.1 µM)	8.8 (≈ 28.8 µM)	6.2
CC(C)COc1ccc2c(c1)CCN=C2/C=C/C1CCCCC1 [Example 5, (E)-1-(2-Cyclohexylvinyl)-3,4-dihydro-6-(2-methylpropyloxy)isoquinoline]	6.1 (≈ 19.6 µM)	6.4 (≈ 20.5 µM)	6.2
CCCOc1ccc2c(c1)CCN=C2/C=C/C1CCCCC1 [Example 6, (E)-1-(2-Cyclohexylvinyl)-3,4-dihydro-6-propyloxyisoquinoline]	0.4 (≈ 1.34 µM)	0.4 (≈ 1.34 µM)	25
CCCCOc1ccc2c(c1)CCN=C2C=Cc1ccc(C#N)cc1 [Example 13, 6-Butyloxy-3,4-dihydro-1-(4-cyanostyryl)isoquinoline]	1.5 (≈ 4.54 µM)	2.5 (≈ 7.57 µM)	6.2
CCCCOc1ccc2c(c1)CCN=C2C=Cc1ccc(Cl)cc1 [Example 22, 6-Butyloxy-1-(4-chlorostyryl)-3,4-dihydroisoquinoline]	–	–	3.1
CCCCOc1ccc2c(c1)CCN=C2/C=C/c1c(F)c(F)c(F)c(F)c1F [Example 23, (E)-6-Butyloxy-1-(2-pentafluorophenyl)vinyl-3,4-dihydroisoquinoline]	1.1 (≈ 2.78 µM)	2.3 (≈ 5.82 µM)	6.2
CCCOc1ccc2c(c1)CCN=C2C=Cc1ccc(Cl)cc1Cl [Example 31, 1-(2,4-Dichlorostyryl)-3,4-dihydro-6-propyloxyisoquinoline]	–	–	6.2
Clc1ccccc1C=CC1=NCCc2cc(OCC3CCCCC3)ccc21 [Example 39, 1-(2-Chlorostyryl)-6-cyclohexylmethoxy-3,4-dihydroisoquinoline]	–	–	1.6
C=CCCOc1ccc2c(c1)CCN=C2C=Cc1ccc(Cl)cc1 [Example 45, 6-(But-3-enyloxy)-1-(4-chlorostyryl)-3,4-dihydroisoquinoline]	2.2 (≈ 6.51 µM)	2.8 (≈ 8.29 µM)	6.2
CC(C)CCOc1ccc2c(c1)CCN=C2C=Cc1ccc(Cl)cc1 [Example 50, 1-(4-Chlorostyryl)-3,4-dihydro-6-(3-methylbutyloxy)-isoquinoline]	–	–	6.2
N#Cc1ccc(C=CC2=NCCc3cc(OCc4ccccc4)ccc32)cc1 [Example 52, 6-Benzyloxy-1-(4-cyanostyryl)-3,4-dihydroisoquinoline]	2.9 (≈ 7.96 µM)	3.2 (≈ 8.78 µM)	6.2
Clc1ccc(C=CC2=NCCc3cc(OCc4ccccc4)ccc32)cc1 [Example 57, 6-Benzyloxy-1-(4-chlorostyryl)-3,4-dihydroisoquinoline]	–	–	6.2
CCCCOc1ccc2c(c1)CCN=C2/C=C/c1ccsc1 [Example 107, (E)-6-Butyloxy-3,4-dihydro-1-(3-thienyl)vinylisoquinoline]	–	–	25
C/C=C/C=C/C1=NCCc2cc(OCCCC)ccc21 [Example 128, (E,E)-6-Butyloxy-3,4-dihydro-1-(penta-1,3-dienyl)isoquinoline]	1.5 (≈ 5.57 µM)	1.6 (≈ 5.94 µM)	25
CCCCOc1ccc2c(c1)CCN=C2C=Cc1ccc(C)s1 [Example 144, 6-Butyloxy-3,4-dihydro-1-(2-(5-methyl-2-thienyl)vinyl)isoquinoline]	–	–	1.6
CCCCCCOc1cc2c(cc1OCCCCCC)C(C=Cc1ccc(Cl)cc1)=NCC2 [Example 165, 1-(4-Chlorostyryl)-6,7-dihexyloxy-3,4-dihydroisoquinoline]	9 (≈ 19.2 µM)	10 (≈ 21.4 µM)	–
Clc1ccc(C=CC2=NCCc3cc(OCc4ccccc4)c(OCc4ccccc4)cc32)c(Cl)c1 [Example 170, 6,7-Bisbenzyloxy-1-(2,4-dichlorostyryl)-3,4-dihydroisoquinoline]	1 (≈ 1.94 µM)	3.2 (≈ 6.22 µM)	–
C(=Cc1ccccc1)C1=NCCc2c1ccc(OCc1ccccc1)c2OCc1ccccc1 [Example 171, 5,6-Bis(benzyloxy)-3,4-dihydro-1-styrylisoquinoline]	0.8 (≈ 1.8 µM)	1.8 (≈ 4.04 µM)	–
Clc1ccc(C=CC2=NCCc3c2ccc(OCc2ccccc2)c3OCc2ccccc2)cc1 [Example 172, 5,6-Bis(benzyloxy)-1-(4-chlorostyryl)-3,4-dihydroisoquinoline]	0.7 (≈ 1.46 µM)	2 (≈ 4.17 µM)	–
COc1ccc(OCc2ccccc2)c2c1C(C=Cc1ccccc1)=NCC2 [Example 174, 5-Benzyloxy-3,4-dihydro-8-methoxy-1-styryl-isoquinoline]	1.4 (≈ 3.79 µM)	2 (≈ 5.41 µM)	–
COc1ccc(OCc2ccccc2)c2c1C(C=Cc1ccc(C#N)cc1)=NCC2 [Example 175, 5-Benzyloxy-1-(4-cyanostyryl)-3,4-dihydro-8-methoxyisoquinoline]	0.4 (≈ 1.01 µM)	1 (≈ 2.54 µM)	–
CCCc1c2c(cc(OC)c1OCc1ccccc1)C(C=Cc1ccc(Cl)cc1)=NCC2 [Example 176, 6-Benzyloxy-1-(4-chlorostyryl)-3,4-dihydro-7-methoxy-5-propylisoquinoline]	1.7 (≈ 3.81 µM)	3.1 (≈ 6.95 µM)	–
CCCc1c(O)c(OC)cc2c1CCN=C2C=Cc1ccccc1Cl [Example 180, 1-(2-Chlorostyryl)-3,4-dihydro-6-hydroxy-7-methoxy-5-propylisoquinoline]	1 (≈ 2.81 µM)	1.6 (≈ 4.5 µM)	–

From patent US4968698A, “Nitrogen containing heterocyclic compounds” (Burroughs Wellcome Co., priority 1984, dated 1990)
